Data reported in article PMC6261661 (ACS chemical neuroscience, 2018).
“Also recorded” adds a separate entry of the source. Square brackets hold non-standard residues; d marks the D form. Peptide text beside a SMILES is read from it. * marks the point of attachment. Bip = N[C@@H](Cc1ccc(-c2ccccc2)cc1)C(=O)O; dBip = N[C@H](Cc1ccc(-c2ccccc2)cc1)C(=O)O; dPhe(4-I) = N[C@H](Cc1ccc(I)cc1)C(=O)O; 2Nal = N[C@@H](Cc1ccc2ccccc2c1)C(=O)O; 3Pal = N[C@@H](Cc1cccnc1)C(=O)O; 4Pal = N[C@@H](Cc1ccncc1)C(=O)O; 2Thi = N[C@@H](Cc1cccs1)C(=O)O; Octanoyl = CCCCCCCC(=O)*

Assays:
Format in all cases: cell-based
mMC1R = mMC1R (Mus musculus, UniProt Q01727); assay: CRE/β-galactosidase reporter gene bioassay, agonist activity at mMC1R; conditions: for mMC1R pharmacology in words: comparisons are to reference peptide 1; for EC50: mMC1R EC50, agonist, HEK-293 cells stably expressing receptor, ±SEM; for mMC1R Fold Diff: fold difference in EC50 vs peptide 1, negative prefix = more potent than 1
mMC3R [1] = target: T1, mMC3R (Mus musculus, UniProt P33033); assay: cell-based
mMC4R [2] = target: T2, mMC4R (Mus musculus, UniProt P56450); assay: CRE/β-galactosidase reporter gene bioassay, agonist activity at mMC4R; conditions: for mMC4R relative percentage of stimulation at 100 μM: ligand at 100 μM, compared to maximal response generated by α-MSH; for mMC4R Fold Diff.: fold difference in EC50 vs peptide 1, negative prefix = more potent than 1
mMC5R = mMC5R (Mus musculus, UniProt P41149); assay: CRE/β-galactosidase reporter gene bioassay, agonist activity at mMC5R; conditions: for mMC5R pharmacology in words: comparisons are to reference peptide 1; for mMC5R Fold Diff.: fold difference in EC50 vs peptide 1, negative prefix = more potent than 1; for mMC5R fold less potent than peptide 1: less potent than 1
mMC4R [3] = target: T2, mMC4R; assay: Antagonist Schild analysis against agonist MTII at mMC4R; conditions: for mMC4R pharmacology class printed in Fold Diff. column (Ant, SA): Ant = antagonist, SA = some stimulatory activity at 100 µM
mMC3R [4] = target: T1, mMC3R; assay: Antagonist Schild analysis against agonist MTII at mMC3R; conditions: for mMC3R pharmacology class printed in Fold Diff column (Ant, SA): Ant = antagonist, SA = some stimulatory activity at 100 µM
[5] = ligand at 100 μM, compared to maximal response generated by α-MSH

mMC1R, sequence (Q01727 whole entry): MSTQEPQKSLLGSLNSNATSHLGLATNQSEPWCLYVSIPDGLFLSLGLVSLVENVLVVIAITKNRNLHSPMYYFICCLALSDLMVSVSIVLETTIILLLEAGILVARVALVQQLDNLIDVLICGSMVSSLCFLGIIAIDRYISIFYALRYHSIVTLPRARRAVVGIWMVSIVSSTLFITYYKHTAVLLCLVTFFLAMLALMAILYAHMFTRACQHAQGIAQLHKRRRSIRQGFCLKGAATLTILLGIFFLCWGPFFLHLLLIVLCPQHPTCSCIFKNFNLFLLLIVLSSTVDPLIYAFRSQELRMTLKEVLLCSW
T1 sequence (P33033 whole entry): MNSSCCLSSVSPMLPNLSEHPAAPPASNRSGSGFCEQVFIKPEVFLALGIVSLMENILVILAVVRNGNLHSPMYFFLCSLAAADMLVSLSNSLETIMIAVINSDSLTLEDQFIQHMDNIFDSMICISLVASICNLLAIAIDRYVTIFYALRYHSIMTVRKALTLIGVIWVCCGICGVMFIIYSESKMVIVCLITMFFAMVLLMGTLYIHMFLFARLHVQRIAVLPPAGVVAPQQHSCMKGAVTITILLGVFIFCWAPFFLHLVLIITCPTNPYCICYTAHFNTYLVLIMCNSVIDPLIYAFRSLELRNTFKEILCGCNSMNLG
mMC5R, sequence (P41149 whole entry): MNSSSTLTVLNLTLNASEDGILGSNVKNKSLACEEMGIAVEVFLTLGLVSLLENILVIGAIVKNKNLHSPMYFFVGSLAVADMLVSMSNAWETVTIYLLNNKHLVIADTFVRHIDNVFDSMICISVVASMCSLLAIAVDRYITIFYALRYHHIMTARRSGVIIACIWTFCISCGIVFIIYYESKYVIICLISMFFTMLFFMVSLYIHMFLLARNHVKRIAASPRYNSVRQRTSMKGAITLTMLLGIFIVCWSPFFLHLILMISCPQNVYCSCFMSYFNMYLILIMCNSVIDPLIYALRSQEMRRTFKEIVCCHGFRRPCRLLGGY
T2 sequence (P56450 whole entry): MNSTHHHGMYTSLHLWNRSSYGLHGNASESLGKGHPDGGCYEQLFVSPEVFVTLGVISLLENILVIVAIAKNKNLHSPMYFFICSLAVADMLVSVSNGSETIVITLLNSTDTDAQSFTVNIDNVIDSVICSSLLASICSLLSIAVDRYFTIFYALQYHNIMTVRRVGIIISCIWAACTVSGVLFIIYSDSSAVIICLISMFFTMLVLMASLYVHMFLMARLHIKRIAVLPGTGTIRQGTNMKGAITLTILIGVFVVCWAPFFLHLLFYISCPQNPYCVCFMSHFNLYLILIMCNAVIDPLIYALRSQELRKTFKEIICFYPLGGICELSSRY

fold preference for the mMC4R versus mMC3R (mMC4R [3]; antagonist) [fold] | SMILES | mMC1R pharmacology in words (mMC1R) | mMC3R relative percentage of stimulation at 100 μM (mMC3R [1]; 100000.0) | mMC4R relative percentage of stimulation at 100 μM (mMC4R [2]) [%] | mMC5R pharmacology in words (mMC5R) | mMC5R Fold Diff. (mMC5R) | mMC4R pharmacology class printed in Fold Diff. column (Ant, SA) (mMC4R [3]) | EC50 (mMC1R) [nM] | EC50 (mMC5R) [nM] | Kb (mMC4R [3]) [nM] | mMC1R Fold Diff (mMC1R) | mMC3R relative percentage of stimulation at 100 μM (mMC3R [1]; [5]) [%] | Kb (mMC3R [4]) [nM] | mMC3R pharmacology class printed in Fold Diff column (Ant, SA) (mMC3R [4]) | Ki (mMC4R [3]) [nM] | mMC5R fold less potent than peptide 1 (mMC5R) | EC50 (mMC4R [2]) [nM] | mMC4R Fold Diff. (mMC4R [2])
 | CCCCCCCC(=O)N[C@@H](Cc1c[nH]cn1)C(=O)N[C@H](Cc1ccccc1)C(=O)N[C@@H](CCCNC(=N)N)C(=O)N[C@@H](Cc1ccc(-c2ccccc2)cc1)C(N)=O [Peptide 2, Octanoyl-His-DPhe-Arg-Bip-NH2] (Octanoyl-H[dF]R[Bip]-NH2) | equipotent | 50%−65% | 40 | decreased potencies | 12 | Ant |  |  |  |  |  |  |  |  |  |  | 
 | CCCCCCCC(=O)N[C@@H](Cc1cnc[nH]1)C(=O)N[C@H](Cc1ccccc1)C(=O)N[C@@H](CCCNC(=N)N)C(=O)N[C@@H](Cc1ccc(-c2ccccc2)cc1)C(N)=O [Peptide 2, Octanoyl-His-DPhe-Arg-Bip-NH2] (Octanoyl-H[dF]R[Bip]-NH2) |  |  |  |  |  |  | 45 ± 12 | 62 ± 4 | 100 |  |  |  |  |  |  |  | 
 | CCCCCCCC(=O)N[C@@H](Cc1c[nH]cn1)C(=O)N[C@H](Cc1ccc(I)cc1)C(=O)N[C@@H](CCCNC(=N)N)C(=O)N[C@@H](Cc1c[nH]c2ccccc12)C(N)=O [Peptide 6, Octanoyl-His-(pI)DPhe-Arg-Trp-NH2] |  | 50%−65% | 30 | equipotent |  | Ant | 6.3 ± 2.4 | 5.8 ± 1.7 | 2.51 | −22 | 50 | 5.01 | Ant | ~3 |  |  | 
 | CCCCCCCC(=O)N[C@@H](Cc1c[nH]cn1)C(=O)N[C@H](Cc1ccccc1)C(=O)N[C@@H](CCCNC(=N)N)C(=O)N[C@H](Cc1ccc(-c2ccccc2)cc1)C(N)=O [Peptide 8, Octanoyl-His-DPhe-Arg-DBip-NH2] (Octanoyl-H[dF]R[dBip]-NH2) | equipotent |  |  | decreased potencies | 6 | Ant | 180 ± 20 | 31 ± 3 | 50.1 |  |  | 316 | Ant |  |  |  | 
 | CC(=O)N[C@@H](Cc1cccnc1)C(=O)N[C@H](Cc1ccc(I)cc1)C(=O)N[C@@H](CCCNC(=N)N)C(=O)N[C@@H](Cc1c[nH]c2ccccc12)C(N)=O [Peptide 12, Ac-3PAL-(pI)DPhe-Arg-Trp-NH2] (Ac-[3Pal][dPhe(4-I)]RW-NH2) |  |  | 35 |  | 3340 | SA Ant | 4800 ± 1400 | 18000 ± 3000 | 5.01 | 34 |  | 100 | Ant |  | 3300 fold |  | 
 | CC(=O)N[C@@H](Cc1cccs1)C(=O)N[C@H](Cc1ccc(I)cc1)C(=O)N[C@@H](CCCNC(=N)N)C(=O)N[C@@H](Cc1c[nH]c2ccccc12)C(N)=O [Peptide 14, Ac-2Thi-(pI)DPhe-Arg-Trp-NH2] (Ac-[2Thi][dPhe(4-I)]RW-NH2) | equipotent |  | 55 |  | 14 | SA Ant | 490 ± 150 | 71 ± 30 | 3.98 |  | 40 | 39.8 | SA Ant |  | 11- to 25 fold |  | 
 | CC(=O)N[C@@H](Cc1ccccc1)C(=O)N[C@H](Cc1ccc(I)cc1)C(=O)N[C@@H](CCCNC(=N)N)C(=O)N[C@@H](Cc1c[nH]c2ccccc12)C(N)=O [Peptide 15, Ac-Phe-(pI)DPhe-Arg-Trp-NH2] (Ac-F[dPhe(4-I)]RW-NH2) |  |  | 30 |  | 25 | SA Ant | 820 ± 320 | 140 ± 30 | 20 | 6 | 20 | 126 | SA Ant |  | 11- to 25 fold |  | 
66 | CC(=O)N[C@@H](Cc1ccncc1)C(=O)N[C@H](Cc1ccc(I)cc1)C(=O)N[C@@H](CCCNC(=N)N)C(=O)N[C@@H](Cc1c[nH]c2ccccc12)C(N)=O [Peptide 16, Ac-4PAL-(pI)DPhe-Arg-Trp-NH2] (Ac-[4Pal][dPhe(4-I)]RW-NH2) |  |  |  |  | 114 | Ant | 2900 ± 1500 | 610 ± 250 | 1.26 | 20 |  | 79.4 | Ant |  |  |  | 
 | CC(=O)N[C@@H](Cc1ccc(-c2ccccc2)cc1)C(=O)N[C@H](Cc1ccc(I)cc1)C(=O)N[C@@H](CCCNC(=N)N)C(=O)N[C@@H](Cc1c[nH]c2ccccc12)C(N)=O [Peptide 17, Ac-Bip-(pI)DPhe-Arg-Trp-NH2] (Ac-[Bip][dPhe(4-I)]RW-NH2) |  |  |  |  | 83 | Ant | 5200 ± 1700 | 440 ± 70 | 79.4 | 37 |  | 631 | Ant |  |  |  | 
 | CC(=O)N[C@@H](Cc1c[nH]c2ccccc12)C(=O)N[C@H](Cc1ccc(-c2ccccc2)cc1)C(=O)N[C@@H](CCCNC(=N)N)C(=O)N[C@@H](Cc1c[nH]c2ccccc12)C(N)=O [Peptide 18, Ac-Trp-DBip-Arg-Trp-NH2] (Ac-W[dBip]RW-NH2) | non-selective mMC1R and mMC5R micromolar agonist profile |  | 45 | non-selective mMC1R and mMC5R micromolar agonist profile | 340 | SA Ant | 1800 ± 1000 | 1800 ± 1300 | 100 | 13 |  | 200 | Ant |  |  |  | 
 | CC(=O)N[C@@H](Cc1ccncc1)C(=O)N[C@H](Cc1ccc(-c2ccccc2)cc1)C(=O)N[C@@H](CCCNC(=N)N)C(=O)N[C@@H](Cc1c[nH]c2ccccc12)C(N)=O [Peptide 22, Ac-4PAL-DBip-Arg-Trp-NH2] (Ac-[4Pal][dBip]RW-NH2) |  | 45% |  |  | 235 |  | 1900 ± 720 | 1300 ± 300 |  | 14 |  | 316 | SA Ant |  |  | 1300 ± 200 | 92
 | CC(=O)N[C@@H](Cc1c[nH]cn1)C(=O)N[C@H](Cc1ccc(I)cc1)C(=O)N[C@@H](CCCNC(=N)N)C(=O)N[C@@H](Cc1ccc(-c2ccccc2)cc1)C(N)=O [Peptide 29, Ac-His-(pI)DPhe-Arg-Bip-NH2] (Ac-H[dPhe(4-I)]R[Bip]-NH2) |  |  | 30 | equipotent agonists; also recorded: very potent nanomolar agonist activity |  | SA Ant | 47 ± 9 | 12.4 ± 2 | 39.8 |  | 35 | 200 | SA Ant |  |  |  | 
 | CC(=O)N[C@@H](Cc1c[nH]cn1)C(=O)N[C@H](Cc1ccc(-c2ccccc2)cc1)C(=O)N[C@@H](CCCNC(=N)N)C(=O)N[C@@H](Cc1ccc(-c2ccccc2)cc1)C(N)=O [Peptide 33, Ac-His-DBip-Arg-Bip-NH2] (Ac-H[dBip]R[Bip]-NH2) | more potent |  | 30 | less potent | 6 | Ant | 15.8 ± 6.1 | 31.2 ± 4.7 | 158 | −9 |  | 501 | Ant |  |  |  | 
 | CC(=O)N[C@@H](Cc1c[nH]cn1)C(=O)N[C@H](Cc1ccc(-c2ccccc2)cc1)C(=O)N[C@@H](CCCNC(=N)N)C(=O)N[C@H](Cc1ccc(-c2ccccc2)cc1)C(N)=O [Peptide 35, Ac-His-DBip-Arg-DBip-NH2] (Ac-H[dBip]R[dBip]-NH2) | within 3-fold experimental error |  | 23 | less potent | 8 | SA Ant | 90 ± 20 | 42 ± 7 | 158 |  |  | 200 | Ant |  |  |  | 
 | CC(=O)N[C@@H](Cc1c[nH]cn1)C(=O)N[C@H](Cc1ccc(-c2ccccc2)cc1)C(=O)N[C@@H](CCCNC(=N)N)C(=O)N[C@@H](Cc1ccc2ccccc2c1)C(N)=O [Peptide 36, Ac-His-DBip-Arg-Nal(2’)-NH2] (Ac-H[dBip]R[2Nal]-NH2) | more potent | 50% |  | less potent | 4 |  | 17 ± 5.4 | 20.7 ± 4.1 |  | −8 |  | 25.1 | SA Ant |  |  | 52 ± 18 | 4
